Several values for one entry are separate records, joined by “and”; a condition that tells them apart may be missing. Equal values may be shown once. Entries after “also recorded” stand apart in the source; their conditions may differ.
What was measured:
HepG2 cells = test: Blocking the AC-cAMP-PKA pathway, growth of HepG2 cells; type: cell-based, human
[1] = test system: mimosine-treated HepG2 cells; test: One-hour treatment of mimosine-treated HepG2 cells, live cell imaging; type: cell-based, human
[2] = test system: primary mouse hepatocytes (PMH); test: Growth of primary mouse hepatocytes, one-hour treatment; type: cell-based; conditions: as high as 320 µM
[3] = test system: 51 human cancer cell lines; test: Growth inhibitory effect, one hour exposure, whole panel; type: cell-based; conditions: mean over the 51 cancer cell lines
Experimental: (§1) Cancer cell lines and immortalized human cell lines were cultured in 1640 tissue culture medium (Corning, USA) with 10% fetal bovine serum in a standard tissue culture condition of 37° C. and 5% CO2.
For primary hepatocytes, the seeded cells were monitored for up to 48 hours either without any treatment (as a control) or with various types of treatments. For primary keratinocytes, cells in 48-well plates were monitored either without any treatment or with various types of treatment for up to 96 hours. For HepG2, cells 96-well plates were monitored either without any treatment or with various types of treatments for up to 48 hours. […]
(§2) To address this possibility, we investigated whether other cell lines, including other HCC cell lines, cell lines from other type of cancers, as well as non-cancer immortalized/transformed cell lines, were also sensitive to Triptonide. Specifically, a total of 51 human cancer cell lines, representing 10 types of human cancers (6 non-small cell lung cancer cell lines, 5 colon cancer cell lines, 5 central nerve system cancer cell lines, 8 Melanomas cell lines, 4 ovarian cancer cell lines, 4 renal cancer cell lines, 2 prostate cancer cell lines, 3 breast cancer cell lines, 7 hepatocellular carcinoma cell lines, and 4 gastric cancer cell lines) were analyzed.

wild-type keratinocytes [4] = test: Growth of wild-type primary keratinocytes, continuous exposure; type: cell-based, mouse
Experimental: For the neonatal mouse keratinocyte culture, the dorsal skins of neonatal wild type or Par2 knockout mice were harvested from wild type or Par2 knockout mice, respectively. The skins were incubated overnight at 4° C. in a 0.25% solution of trypsin (Life Technologies, USA) in phosphate-buffered saline (PBS) without calcium and magnesium. The epidermis was then separated from the adjoining dermis, and the dispersed epidermal cells were collected in suspension Eagle’s minimal essential medium (SMEM) (Life Technologies, USA) supplemented with glutamine and 8% calcium free fetal calf serum (FCS) (Life Technologies, USA). The cells were plated onto individual wells of 48 well plates (Corning, USA), which were pre-coated with collagen (Life Technologies, USA), at a density of 70,000 cells/well. The cell cultures were kept for 12 hours at 34° C. in a humidified incubator containing 8% CO2. Low calcium (0.05 mM) S-MEM, containing 8% FCS was then added to initiate the culture. The culture medium was changed every 2 days.
(§3) For primary hepatocytes, the seeded cells were monitored for up to 48 hours either without any treatment (as a control) or with various types of treatments. For primary keratinocytes, cells in 48-well plates were monitored either without any treatment or with various types of treatment for up to 96 hours. For HepG2, cells 96-well plates were monitored either without any treatment or with various types of treatments for up to 48 hours. The IncuCyte Zoom was set to take a set of images at fixed locations (4 per well for 96-well plates and 16 per well for 48-well plates and 12-well plates) every three hours.
To address this question, we took a genetic approach.

[5] = Lethal dose and maximum tolerable dose in mice; type: in vivo
Experimental: Thus, a second preliminary experiment was carried out in tumor-bearing nude mice to determine whether an antitumor effect could be achieved within the non-toxic range. […] Thus, the 25 mg/kg once every other day regimen was selected for the preclinical experiment. The volumes of individual tumors were assessed by bioluminescent imaging.
Thus, we first determined the lethal dose and the maximum tolerable dose (MTD) of Triptonide for mice based on a once every other day regimen. […] It is noted that once every other day might not be the optimal scheme. Nonetheless, we decided to begin with this scheme and the 25% value of the MTD, i.e. 25 mg/kg.

[6] = test system: Par2 knockout keratinocytes; test: Growth of Par2 knockout primary keratinocytes, one hour treatment; type: cell-based, mouse; conditions: one hour treatment
[7] = cited from earlier work
wild-type keratinocytes [8] = test: Growth of wild-type primary keratinocytes, short-term treatment; type: cell-based, mouse
PKA = test: Measurement of PKA activity in HepG2 cells; type: cell-based, human
HCT-15 = test: Growth inhibitory effect, one hour exposure (IncuCyte Zoom); type: cell-based, human; conditions: HCT-15, Colon
Experimental: as §1, §3
(§4) The one-hour exposure is intended to simulate the transient high concentrations within the liver as the results of either the first pass effects of some orally administered drugs, or of locally delivered drugs, anticipating that such a short term exposure is nevertheless sufficient to affect certain cell surface receptors without causing any significant off-target effects due to intracellular absorption. Such a strategy would also reduce false hits due to reversible cell cycle arrests.
as §2

BGC823 = test: as above; type: cell-based, human; conditions: BGC823, Gastric cancer
Experimental: as §1, §3, §4, §2

ACHN = test: as above; type: cell-based, human; conditions: Renal
Experimental: as §1, §3, §4, §2

SK-MEL-28 = test: as above; type: cell-based, human; conditions: SK-MEL-28, Melanoma
Experimental: as §1, §3, §4, §2

MDA-MB-435 = test: as above; type: cell-based, human; conditions: MDA-MB-435, Melanoma
Experimental: as §1, §3, §4, §2

IGR-OV1 = test: as above; type: cell-based, human; conditions: IGR-OV1, Ovarian
Experimental: as §1, §3, §4, §2

SF-268 = test: as above; type: cell-based, human; conditions: SF-268, CNS
Experimental: as §1, §3, §4, §2

OVCAR-8 = test: as above; type: cell-based, human; conditions: OVCAR-8, Ovarian
Experimental: as §1, §3, §4, §2

HCC-2998 = test: as above; type: cell-based, human; conditions: HCC-2998, Colon
Experimental: as §1, §3, §4, §2

SK-MEL-2 = test: as above; type: cell-based, human; conditions: SK-MEL-2, Melanoma
Experimental: as §1, §3, §4, §2

SF-295 = test: as above; type: cell-based, human; conditions: SF-295, CNS
Experimental: as §1, §3, §4, §2

OVCAR-5 = test: as above; type: cell-based, human; conditions: OVCAR-5, Ovarian
Experimental: as §1, §3, §4, §2

[9] = rodents, intraperitoneal injection

**Q.** Which “effect on growth of HepG2 cells” value (HepG2 cells) does the source give for `CC(C)[C@]12O[C@H]1[C@@H]1O[C@@]13[C@@]1(C)CCC4=C(COC4=O)[C@@H]1C[C@@H]1O[C@@]13C2=O` [Triptonide] here?
**A.** significant growth inhibitory effect

**Q.** What about the “effect of treatment applied at hour 0 after release” value [1] of the same compound?
**A.** became static, but no significant accumulation of mitotic catastrophe cells

**Q.** What about the “sensitivity to mitotic catastrophe-inducing effect by time of treatment” value [1] of the same compound?
**A.** only sensitive when the treatment was applied at 2 hours

**Q.** And the “growth inhibitory effect on PMHs” value [2]?
**A.** no significant growth inhibitory effect

**Q.** And the IC50 [3]?
**A.** 7.31 µM and 7.66 µM

**Q.** What about the “growth inhibitory effect, wild-type versus Par2 knockout” value (wild-type keratinocytes [4]; continuous exposure) of the same compound?
**A.** more potent growth inhibitory effect on the Par2 wild-type PMHs than their Par2 knockout counterparts

**Q.** And the “toxicity to Par2-expressing primary mouse keratinocytes” value (wild-type keratinocytes [4]; long-term exposure, as low as 50 nM)?
**A.** quite toxic

**Q.** What about the mortality ([5]; 100 mg/kg three times a day, four-hour interval, within four days) of the same compound?
**A.** all animals were dead

**Q.** And the death ([5]; 200 mg/kg oral, once every other day, within four days)?
**A.** 100%

**Q.** And the adverse effects ([5]; up to 100 mg/kg oral, once every other day)?
**A.** did not cause any significant adverse effects; also recorded: did not result in any significant adverse effects

**Q.** And the “effect on growth of Par2 knockout keratinocytes” value ([6]; 100 and 200 µM)?
**A.** growth inhibitory effects

**Q.** And the IC50 ([6]; Par2 knockout keratinocytes)?
**A.** 25.7 µM

**Q.** What about the “effect on growth of Par2 knockout keratinocytes” value ([6]; concentrations up to 26 µM) of the same compound?
**A.** did not cause significant growth inhibition

**Q.** What about the “change of plasma concentration on redistribution” value ([7]; rodent, following an oral dosing) of the same compound?
**A.** several dozen folds of decrease

**Q.** What about the T1/2 alpha [7, 9] of the same compound?
**A.** 0.17 to 0.195 h

**Q.** What about the T1/2 beta [7, 9] of the same compound?
**A.** 4.95 to 6.49 h

**Q.** What about the IC50 (wild-type keratinocytes [8]) of the same compound?
**A.** 1.29 µM

**Q.** What about the “effect on growth of wild-type keratinocytes” value (wild-type keratinocytes [8]) of the same compound?
**A.** effective in inhibiting the growth; also recorded: complete growth inhibition; also recorded: significant growth suppressive effect

**Q.** And the “levels of PKA activities, acute” value (PKA; 1 µM, serum free, first 30 minutes after treatment)?
**A.** two-wave elevation

**Q.** And the “level of PKA activity around G2/M transition” value (PKA; one-hour treatment in regular medium (Trypsin 50 nM, Triptonide 1 µM), hour 9 and 10 after mimosine)?
**A.** remained largely unchanged

**Q.** What about the IC50 (HCT-15) of the same compound?
**A.** 1.18 µM

**Q.** What about the IC50 (BGC823) of the same compound?
**A.** 10.4 µM

**Q.** What about the IC50 (ACHN) of the same compound?
**A.** 15 µM

**Q.** What about the IC50 (SK-MEL-28) of the same compound?
**A.** 17.8 µM

**Q.** And the IC50 (MDA-MB-435)?
**A.** 1.91 µM

**Q.** What about the IC50 (IGR-OV1) of the same compound?
**A.** 4.66 µM

**Q.** What about the IC50 (SF-268) of the same compound?
**A.** 11.8 µM

**Q.** What about the IC50 (OVCAR-8) of the same compound?
**A.** 7.29 µM

**Q.** And the IC50 (HCC-2998)?
**A.** 2.77 µM

**Q.** And the IC50 (SK-MEL-2)?
**A.** 0.608 µM

**Q.** What about the IC50 (SF-295) of the same compound?
**A.** 14.6 µM

**Q.** And the IC50 (OVCAR-5)?
**A.** 8.23 µM

— patent US20230125429A1 (priority 2017, published 2023)
